Values quoted from earlier work as cited in US6342486B1, “Polymer glucan ether derivatives, their manufacturing as well as their use” (Mibelle AG Cosmetics, priority 1996, dated 2002).

Conditions: isolated glucan from yeast cells

solubility in aqueous systems: extremely low solubility
Substance: 1,3-beta-polyglucose [glucan]
